# From patent publication US10190120B2, “Zn-DPA complex compounds and siRNA delivery systems containing the same” (KOREA INSTITUTE OF SCIENCE AND TECHNOLOGY, priority 2016, dated 2019)
# What was measured:
# HCT116 cell line = assay: siRNA delivery efficiency with biotin pre-treatment (competition); assay type: cell-based; settings: biotin 0.5 mM and 5 mM 30 minutes before, molar ratio 1:400, FIG. 6
# Experimental: (§1) According to Experimental Example 1 (1), composites having a molar ratio of siRNA (luciferase siRNA, siLuc) and the Zn-DPA complex compound of 1:50, 1:100, 1:200, 1:400, 1:600, 1:800, and 1:1,000 were prepared, and the concentration of siLuc per sample was adjusted constantly at 20 nM. The composite was treated with ssPEI/CMV-LUC (1 μg) in HeLa, HepG2, and HCT116 cell lines, and was washed with a Dulbecco's phosphate buffered saline solution (DPBS) after 6 hours, and then the composite was treated in a serum-free medium. After 4 hours, the medium was exchanged with a 10% serum medium, and then the samples were cultivated at 37° C. for 24 hours. The cells were washed with the DPBS and were dissolved in a lysis buffer (200 μL), and then the degree of expression of the luciferase was determined by using a microplate fluorescence analyzer (VICTOR 3 V Multilabel Counter, PerkinElmer, Wellesley, Mass.). The results are illustrated in FIG. 5.
# (§2) In order to evaluate the delivery efficiency of siRNA (luciferase siRNA, siLuc) for the Zn-DPA complex compound synthesized in Example 1-3, a cell experiment was performed in the same manner as in Experimental Example 4 by classifying the experimental groups into groups treated with biotin at a concentration of 0.5 mM and 5 mM 30 minutes before treating the groups with a composite of siRNA and the Zn-DPA complex compound, or a non-treatment group. […]
# HepG2 cell line = assay: as above; assay type: cell-based; settings: biotin 0.5 mM and 5 mM 30 minutes before, molar ratio 1:400, FIG. 6
# Experimental: as §1, §2
smiles,measurement,setting,value
O=C(CCCCC1SC[C@H]2NC(=O)N[C@@H]12)NCCCCOc1cccc(CN(Cc2ccccn2)Cc2ccccn2)c1 (some centres unmarked) [Example 1-3],effect of biotin on cell delivery efficiency / amount of luciferase expressed,HCT116 cell line,slight
same,effect of biotin on cell delivery efficiency / amount of luciferase expressed,HepG2 cell line,significantly varied depending on the presence or absence of biotin
